Target: Protein cereblon (Homo sapiens, UniProt Q96SW2)
Assay: Cereblon Binding Assay
Method: The binding to cereblon (CRBN) was determined using the Cereblon Binding Kit (Cisbio, #64BDCRBNPEG) following the manufacturer's instruction. Briefly, serially diluted compounds were incubated with GST-tagged wild-type human CRBN protein, XL665-labelled Thalidomide and Europium Cryptate labelled GST antibody at room temperature for about 3 hours. Time Resolved Fluorescence Resonance Energy Transfer (TR-FRET) measurements were acquired on a CALRIOstar plate reader with MARS data analysis software (BMG Labtech), with the following settings: 665/10 nm and 620/10 nm emission, 60 μs delay and 400 μs integration. The TR-FRET ratio was taken as the 665/620 nm intensity ratio.

Sequence of Protein cereblon (Q96SW2 whole entry): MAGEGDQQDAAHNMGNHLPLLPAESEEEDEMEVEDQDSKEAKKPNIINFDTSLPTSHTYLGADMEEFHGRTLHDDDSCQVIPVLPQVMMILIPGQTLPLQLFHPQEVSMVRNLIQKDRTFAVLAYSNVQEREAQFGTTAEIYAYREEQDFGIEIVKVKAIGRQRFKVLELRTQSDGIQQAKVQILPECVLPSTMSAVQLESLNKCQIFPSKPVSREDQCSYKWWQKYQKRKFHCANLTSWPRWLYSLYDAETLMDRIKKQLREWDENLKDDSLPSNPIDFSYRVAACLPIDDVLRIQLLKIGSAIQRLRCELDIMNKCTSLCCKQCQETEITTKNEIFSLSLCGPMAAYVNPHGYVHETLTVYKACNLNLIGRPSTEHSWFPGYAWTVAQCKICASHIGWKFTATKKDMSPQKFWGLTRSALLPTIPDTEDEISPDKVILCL

Row | SMILES | IC50 [nM]
1 | O=C1CCC(N2Cc3c(ccc4c3O[C@H](COCc3ccccc3)CO4)C2=O)C(=O)N1 (some centres not stated) [US20240059711, Compound B10] | 800
2 | O=C1CCC(N2Cc3c(ccc4c3O[C@@H](COCc3ccccc3)CO4)C2=O)C(=O)N1 (some centres not stated) [US20240059711, Compound B9] | 580

From BindingDB's records for patent US20240059711 (University of Michigan, 2024)
